# Like-named read-outs stand apart in the source and are kept apart here. Where a SMILES comes first, the peptide text is derived from it. Bridges are numbered along the chain shown (N, C = ends). [ ]: non-standard residue; d: D form. The star is where a group is joined. Asp(3S-OH) = N[C@H](C(=O)O)[C@H](O)C(=O)O; Thr(4-Cl) = N[C@H](C(=O)O)[C@H](O)CCl; X1 = CCCCCCCCC[C@@H](O)CC(=O)*; dDab = NCC[C@@H](N)C(=O)O; Dab = NCC[C@H](N)C(=O)O; Dhb = C/C=C(\N)C(=O)O
# Tests used:
# [1] = system: BFTE cells; experiment: Toxic effect of Syr-E on BFTE host cells at pH 6.3 (neutral red assay, visual observation); format: cell-based, bovine
# Protocol: Primary BFTE cell cultures were prepared from bovine fallopian tubes (FT). Fat was trimmed from the serosal surfaces, mucus was gently squeezed from the lumens, and FT were decontaminated by being submerged in 70% ethanol for 30 seconds. The FT were then transferred to sterile culture petri dishes containing HBSS and washed twice. The BFTE cells were harvested either by flushing the FT with HBSS, using a 10 ml syringe equipped with a mouse feeding needle, or by opening the FT lengthwise with scissors and scraping the mucosal surfaces. The BFTE cells were subsequently washed in HBSS by centrifugation at 200×g (force of gravity) for 10 minutes, planted in 75-cm^2 flasks containing RPMI 1640 and cultured in a 5% CO2 incubator at 37° C. for 72 to 120 hours. When the cell lines reached confluency, they were trypsinized, split, and planted onto cover slips positioned on the bottoms of individual wells in 24-well tissue culture plates. When cells reached 80% confluency, they were inoculated with either 10^5 oocysts or 4×10^5 sporozoites per well. Plates were then maintained at 37° C. in a candle jar environment (17% O2, 3% CO2, 80% N2). Growth medium was changed in each well every 72 hours. In wells inoculated with oocysts, the medium was first changed at 24 hours to remove any unexcysted oocysts.
# Neutral red assay was used to measure viewable cell damage, such as obvious plaque forming and cell peeling. Briefly, 0.1 ml of neutral red was directly added to supernatant in each well of 96-well plates at the termination of the culture. Following 1-hr incubation at 37°C., the supernatant mixture from each well was discarded and cells at the bottom of the wells were rinsed twice with PBS. A volume of 0.2 ml/well extract buffer was added and the content in each well was well mixed prior to 30 min. incubation in the dark at 25°C. cytotoxicity was quantitatively read using a Microplate Autoreader (Bio-Tek Instruments, Inc., Winooski, Vt.) with a wavelength set at 540 nm.
# Samples were collected on day 2 post inoculation. Each group consisted of both uninfected (empty bar) and C. parvum infected (solid bar) subgroups. In group 1, the medium pH was adjusted to 7.2, no Syr-E was used, and the cytotoxicity of the uninfected subgroup set to zero percent. Medium pH in groups 2-8 was adjusted to 6.3 and groups 3-8 received Syr-E treatments at 1, 2, 4, 8, 16, and 32 ,g/ml, respectively. Data are presented as the means +/- standard error of the mean. The cytotoxic effect increased from approximately 40% to 60% as Syr-E concentrations were elevated from 1 to 16 μg/ml, presenting a dose-dependent response. […] BFTE cells were 98% destroyed when Syr-E concentration reached 32 μg/ml at pH 6.3.
# [2] = system: L. donovani; format: cell-based; conditions: pH 5.5, 72 hours
# Protocol: L. donovani parasites (WHO designation: MHOM/SD/62/1S-CL2D) used in this study were originally donated by the National Institutes of Health. These parasites were maintained as axenic amastigote-like forms by serial passage at 37°C. in a humid atmosphere containing 5% CO2 using a slightly modified version of the medium described by Joshi et al., Cloning and characterization of differentially expressed genes from in vitro-grown `amastigotes` of Leishmania donovani. Molecular and Biochemical Parasitology, 1993. 58: p. 345-354, the contents of which are incorporated herein by this reference.
# L. donovani amastigote-like forms were seeded at 10^6 cells/ml in 96-well flat-bottom plates (Costar) in the amastigote medium described above in the presence or absence of drugs. The final volume in each well was 60 μl. Wells containing control parasites included 1% DMSO, the maximum concentration of the vehicle found in drug-containing samples. Plates were incubated at 37° C. in a humid 5% CO2 atmosphere for 72 hours, then 12 μl of the aqueous CellTiter solution (Promega) was added to each well according to the instructions of the manufacturer. Plates were returned to the 37° C. incubator for a further 4-5 hours, then the absorbance of each well was measured at 490 nm using a SpectraMax Plus plate reader (Molecular Devices, Sunnyvale, Calif.). IC50 values for each of the drugs (the concentration of drug that inhibited the growth of parasites by 50% compared to controls) was determined with the aid of the program SoftMax Pro (Molecular Devices). The log dose response equation y=((a-d)/(1+(x/c)^b))+d was used to calculate IC50 values, where x=drug concentration, y=absorbance at 490 nm, a=upper asymptote, b=slope, c=IC50, and d=lower asymptote.
# Activity of Syr-E against L. donovani was determined using a cell-free amastigote culture technique that included the uptake of a vital dye (Cell Titer solution, Promega Corporation) as a measure of parasite viability at 72 hours post inoculation. OD values for serial dilutions of Syr-E were transformed as described for the malaria screen (Example VII) to determine IC50 values against Leishmania. The amastigote assay was performed at a pH of 5.5, which is favorable for Syr-E activity.
compound,measurement,setting,value
"C/C=C1\NC(=O)[C@H](Cc2ccccc2)NC(=O)[C@H](CCCNC(=N)N)NC(=O)[C@H](CCN)NC(=O)[C@@H](CCN)NC(=O)[C@@H](CO)NC(=O)[C@@H](NC(=O)C[C@H](O)CCCCCCCCC)COC(=O)[C@H]([C@H](O)CCl)NC(=O)[C@H]([C@H](O)C(=O)O)NC1=O [Syr-E, Syringomycin-E] (X1-S[dS][dDab][Dab]RF[Dhb][Asp(3S-OH)][Thr(4-Cl)]; ester 1-C)",cytotoxic effect (neutral red assay),"[1]; Syr-E 1 μg/ml, BFTE cells, pH 6.3, day 2 post inoculation",approximately 40%
same,cytotoxic effect (neutral red assay),"[1]; Syr-E 16 μg/ml, BFTE cells, pH 6.3, day 2 post inoculation",~60%
same,BFTE cells destroyed (neutral red assay),"[1]; Syr-E 32 μg/ml, pH 6.3, day 2 post inoculation",98%
same,visual cell damage,"[1]; Syr-E 0.5-9.0 μg/ml, BFTE cells, pH 6.3",Visual cell plaques were observed
same,OD Values,"[2]; Sample 1, Concentration 4.00000 (unit not given)",0.099
same,OD Values,"[2]; Sample 2, Concentration 2.00000 (unit not given)",0.097
same,OD Values,"[2]; Sample 3, Concentration 1.00000 (unit not given)",0.090
same,OD Values,"[2]; Sample 4, Concentration 0.50000 (unit not given)",0.089
same,OD Values,"[2]; Sample 5, Concentration 0.25000 (unit not given)",0.090
same,OD Values,"[2]; Sample 6, Concentration 0.12500 (unit not given)",0.102
same,OD Values,"[2]; Sample 7, Concentration 0.06250 (unit not given)",0.678
same,OD Values,"[2]; Sample 8, Concentration 0.03125 (unit not given)",0.664
same,OD Values,"[2]; Sample 9, Concentration 0.01563 (unit not given)",0.709
same,OD Values,"[2]; Sample 10, Concentration 0.00781 (unit not given)",0.652
same,OD Values,"[2]; Sample 11, Concentration 0.00391 (unit not given)",0.672
same,IC50,[2]; amastigote assay,0.10115 µg/mL
